The subject of data set [1] is Hepatitis C virus. Put plainly: Inhibition of HCV1b NS3/4A protease by FRET assay. Also noted: species or system Hepatitis C virus subtype 1b.
The subject of data set [2] is Hepatitis C virus. Put plainly: Antiviral activity against HCV1b infected in human 1b-Rluc cells by replicon assay. Type of data set: functional, organism-based, Hepacivirus hominis. The settings on record: genotype 1b. On the technique in general: A replicon is a self-replicating genome or part of one, used to study replication in cells.
The nature of data set [3]: Oral bioavailability in Sprague-Dawley rat at 10 mg/kg. Type of data set: ADME, organism-based. Particulars: in vivo.
Data set [4] in a line: Mean residence time in Sprague-Dawley rat at 1 mg/kg, iv. Also noted: dose 1 mg/kg, route intravenous. The format is ADME, organism-based. Particulars: in vivo.
Data set [5] is described as follows: Clearance in Sprague-Dawley rat at 1 mg/kg, iv. The format is ADME, organism-based. Set-up: dose 1 mg/kg, route intravenous. The settings on record: in vivo.
Data set [6] in a line: Lipophilicity, log D of the compound. Type of data set: physicochemical. Particulars: octanol/water.

By IC50 is commonly meant the concentration needed to halve the response being measured. A higher IC50 goes with a need for much substance. The EC50 is the midpoint of the concentration-response curve. The low end stands for higher potency in that assay, the high end for lower potency in that assay. Consider `C=C[C@@H]1C[C@]1(NC(=O)[C@@H]1C[C@@H](Oc2cc(-c3cccc(C(C)C)n3)nc3c(Cl)c(OCCOC)ccc23)[C@H]2CC[C@H](C(C)C)C(=O)N21)C(=O)NS(=O)(=O)C1CC1`, for which, in the data set on Hepatitis C virus [1], the IC50 was determined as 1 nM. In the data set on Hepatitis C virus [2], this molecule showed an EC50 of 144 nM.
The matching figures for `C=C[C@@H]1C[C@]1(NC(=O)[C@@H]1C[C@@H](Oc2cc(OCC)nc3c(C)c(OC)ccc23)[C@H]2CC[C@H](C(C)C)C(=O)N21)C(=O)NS(=O)(=O)C1CC1`: 2 nM and 818 nM.
Broadly, the bioavailability is the share of a dose that reaches the circulation, judged against a reference dose that is usually intravenous. Lower therefore signals little systemic uptake. What is called MRT is the average time that molecules of a dose stay in the body. As usually defined, the clearance is a measure of how efficiently the substance is removed, as volume per time. Low values mean a low capacity for elimination, high ones a high capacity for elimination. One may read the logD as lipophilicity at a set pH, counting ionised and neutral species. Take `C=C[C@@H]1C[C@]1(NC(=O)[C@@H]1C[C@@H](Oc2cc(-c3nc(C(C)C)cs3)nc3c(Cl)c(OCCOC)ccc23)[C@H]2CC[C@H](C(C)C)C(=O)N21)C(=O)NS(=O)(=O)C1CC1`: the IC50 in the data set on Hepatitis C virus [1] was 1 nM. The molecule also had an EC50 in the data set with Hepatitis C virus [2] of 75 nM. Besides, the bioavailability in data set [3] was 21%. In addition, the MRT in data set [4] turned out to be 75.6 min. The molecule further showed a clearance in data set [5] of 11.2 mL/min/kg. In data set [6], this molecule had a logD of 3.54.
Molecule `C=C[C@@H]1C[C@]1(NC(=O)[C@@H]1C[C@@H](Oc2cc(-c3nc(C(C)C)cs3)nc3c(C)c(OC)ccc23)[C@H]2CC[C@H](C(C)C)C(=O)N21)C(=O)NS(=O)(=O)C1CC1` yielded an IC50 in the data set on Hepatitis C virus [1] of 3 nM. The same molecule registered an EC50 in the data set on Hepatitis C virus [2] of 213 nM. This molecule also came in with a bioavailability in data set [3] of 44%. The MRT in data set [4] turned out to be 52.8 min. In data set [5], this molecule gave a clearance of 14.8 mL/min/kg. The logD in data set [6] stood at 4.5.
In the data set on Hepatitis C virus [1], `C=C[C@@H]1C[C@]1(NC(=O)[C@@H]1C[C@@H](Oc2cc(-c3nc(C(C)C)cs3)nc3c(Cl)c(OC)ccc23)[C@H]2CCCC(=O)N21)C(=O)NS(=O)(=O)C1CC1` returned an IC50 of 32 nM.
In the case of `C=C[C@@H]1C[C@]1(NC(=O)[C@@H]1C[C@@H](Oc2cc(-c3nc(C(C)C)cs3)nc3c(C)c(OC)ccc23)[C@H]2CCCC(=O)N21)C(=O)NS(=O)(=O)C1CC1`, it took 47 nM to reach half-maximal inhibition with Hepatitis C virus [1] (IC50).
`C=C[C@@H]1C[C@]1(NC(=O)[C@@H]1C[C@@H](Oc2cc(-c3nc(C(C)C)cs3)nc3c(Cl)c(OC)ccc23)[C@H]2CC[C@H](C(C)C)C(=O)N21)C(=O)NS(=O)(=O)C1CC1`: the IC50 in the data set with Hepatitis C virus [1] turned out to be 2 nM. In the data set with Hepatitis C virus [2], this molecule showed an EC50 of 76 nM. Also, the logD in data set [6] was 3.85.
Consider `C=C[C@@H]1C[C@]1(NC(=O)[C@@H]1C[C@@H](Oc2cc(-c3nc(C(C)C)cs3)nc3c(Cl)c(OCCN4CCOCC4)ccc23)[C@H]2CC[C@H](C(C)C)C(=O)N21)C(=O)NS(=O)(=O)C1CC1`, for which the IC50 in the data set with Hepatitis C virus [1] worked out at 3 nM. Further, the EC50 in the data set with Hepatitis C virus [2] came to 81 nM. For the same molecule, in data set [3], the bioavailability turned out to be 35%. Moreover, the MRT in data set [4] worked out at 44.4 min. Moreover, the clearance in data set [5] is 26.2 mL/min/kg. This molecule also registered a pH-dependent lipophilicity (logD) in data set [6] of 3.26.
With `C=C[C@@H]1C[C@]1(NC(=O)[C@@H]1C[C@@H](Oc2cc(-c3csc(NC(C)C)n3)nc3c(Cl)c(OC)ccc23)CN1C(=O)[C@@H](NC(=O)OC1CCCC1)C(C)(C)C)C(=O)O`, the IC50 in the data set on Hepatitis C virus [1] was 2.6 nM.

(Values after ChEMBL document CHEMBL1938333, “Novel, potent and orally bioavailable indolizidinone-derived inhibitors of the hepatitis C virus NS3 protease” (Bioorg Med Chem Lett, 2012).)
